Source: patent publication US6977262B2, “Dihydropyrazolopyridine compounds and pharmaceutical use thereof” (Mitsubishi Pharma Corporation, priority 2001, dated 2005)

Target: rabbit GSK-3β (Oryctolagus cuniculus, UniProt G1T8E2)
Assay: GSK-3β-inhibitory activity (phosphorylation of CREB phosphopeptide, [γ-32P]ATP, scintillation counting)
Format: biochemical
Details: rabbit GSK-3β (0.5 unit), 30° C. for 20 minutes, Table 1
Method: CREB phosphopeptide ([…]), rabbit GSK-3β (0.5 unit), ATP ([…]), [γ-^32P]ATP (12.3 kBq) and a test compound were reacted in a GSK-3β buffer solution (25 μL) (20 mmol/L Tris-HCl (pH 7.5), 10 mmol/L magnesium chloride, 5 mmol/L dithiothreitol) containing 1% dimethyl sulfoxide, at 30° C. for 20 minutes. The reaction product (10 μL) was adsorbed on a P81 ion-exchange paper, and the paper was washed with phosphoric acid (100 mmol/L) and measured for cpm on a scintillation counter.
CREB Phosphopeptide is Lys-Arg-Arg-Glu-Ile-Leu-Ser-Arg-Arg-Pro-Ser(P)-Tyr-Arg.

Chain of rabbit GSK-3β (G1T8E2 1-432): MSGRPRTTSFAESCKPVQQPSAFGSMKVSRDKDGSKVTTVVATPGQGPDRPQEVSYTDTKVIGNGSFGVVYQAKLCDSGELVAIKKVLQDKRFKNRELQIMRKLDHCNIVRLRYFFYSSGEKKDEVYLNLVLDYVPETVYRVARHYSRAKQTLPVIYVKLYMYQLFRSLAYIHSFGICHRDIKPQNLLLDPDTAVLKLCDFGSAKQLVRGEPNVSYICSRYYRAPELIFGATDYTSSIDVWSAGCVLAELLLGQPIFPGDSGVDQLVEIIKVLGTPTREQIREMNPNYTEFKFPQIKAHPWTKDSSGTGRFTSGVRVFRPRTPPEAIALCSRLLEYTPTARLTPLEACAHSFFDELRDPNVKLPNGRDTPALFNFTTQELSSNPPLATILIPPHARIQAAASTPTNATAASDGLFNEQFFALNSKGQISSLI

| SMILES | IC50 |
| --- | --- |
| CCCC1=C(c2nnc(C)o2)C(c2cccc(C#N)c2Br)c2c[nH]nc2N1 (stereo not drawn) [Example 1158, 4-(2-Bromo-3-cyanophenyl)-4,7-dihydro-5-(5-methyl-1,3,4-oxadiazol-2-yl)-6-propyl-2H-pyrazolo[3,4-b]pyridine] | 0.65 nM |

Tested on: not given
Assay: not given
Details: not given

| SMILES | melting point |
| --- | --- |
| N#CC1=C(C2CCCN2)Nc2n[nH]cc2C1c1cccc2nonc12 (stereo not drawn) [Example 1070, 4-(2,1,3-Benzoxadiazol-4-yl)-5-cyano-4,7-dihydro-6-(pyrrolidin-2-yl)-2H-pyrazolo[3,4-b]pyridine] | > 240 °C |
| CCCC1=C(C#N)C(c2ccncc2)c2c[nH]nc2N1 (stereo not drawn) [Example 337, 5-Cyano-4,7-dihydro-6-propyl-4-(pyridin-4-yl)-2H-pyrazolo[3,4-b]pyridine] | 224 °C |
| CCCC1=C(C(=O)OCC)C(c2cccc3nonc23)c2c[nH]nc2N1 (stereo not drawn) [Example 76, Ethyl 4-(2,1,3-benzoxadiazol-4-yl)-4,7-dihydro-6-propyl-2H-pyrazolo[3,4-b]pyridine-5-carboxylate] | 207 °C |
| CCCC1=C(C(=O)OCC)C(c2cc(F)ccc2OC)c2c[nH]nc2N1 (stereo not drawn) [Example 51, Ethyl 4-(5-fluoro-2-methoxyphenyl)-4,7-dihydro-6-propyl-2H-pyrazolo[3,4-b]pyridine-5-carboxylate] | 164 to 167 °C |
| CCCC1=C(C#N)[C@H](c2cccc3nonc23)c2c[nH]nc2N1 [Example 140, R(−) 4-(2,1,3-Benzoxadiazol-4-yl)-5-cyano-4,7-dihydro-6-propyl-2H-pyrazolo[3,4-b]pyridine] | 170 °C |
| COC(CC1=C(C#N)C(c2cccc3nonc23)c2c[nH]nc2N1)OC (stereo not drawn) [Example 329, 4-(2,1,3-Benzoxadiazol-4-yl)-5-cyano-6-(2,2-dimethoxyethyl)-4,7-dihydro-2H-pyrazolo[3,4-b]pyridine] | 115 °C |
| Cl.N#CC1=C(C2CCNCC2)Nc2n[nH]cc2C1c1cccc2nonc12 (stereo not drawn) | > 270 °C |
| CCOC(=O)C1=C(C(F)(F)F)Nc2n[nH]cc2C1c1ccccc1F (stereo not drawn) [Example 13, Ethyl 4-(2-fluorophenyl)-4,7-dihydro-6-trifluoromethyl-2H-pyrazolo[3,4-b]pyridine-5-carboxylate] | 119 to 120 °C |
| COc1ccc(C2=C(C#N)C(c3cccc4nonc34)c3c[nH]nc3N2)cc1 (stereo not drawn) [Example 161, 4-(2,1,3-Benzoxadiazol-4-yl)-5-cyano-4,7-dihydro-6-(4-methoxyphenyl)-2H-pyrazolo[3,4-b]pyridine] | 244 °C |
| CCCC1=C(C(=O)OCC)C(c2cccc3c2CCC3)c2c[nH]nc2N1 (stereo not drawn) [Example 103, Ethyl 4,7-dihydro-4-(indan-4-yl)-6-propyl-2H-pyrazolo[3,4-b]pyridine-5-carboxylate] | 181 to 183 °C |
| CCCC1=C(C#N)C(c2ccccc2Cl)c2c(n[nH]c2C2CCCCC2)N1 (stereo not drawn) [Example 311, 4-(2-Chlorophenyl)-5-cyano-3-cyclohexyl-4,7-dihydro-6-propyl-2H-pyrazolo[3,4-b]pyridine] | > 270 °C |
| CCCCc1ccccc1C1C(C(=O)OCC)=C(CCC)Nc2[nH]ncc21 (stereo not drawn) [Example 102, Ethyl 4-(2-butylphenyl)-4,7-dihydro-6-propyl-1H-pyrazolo[3,4-b]pyridine-5-carboxylate] | 175 °C |
| CCCC1=C(C(=O)OCC)C(c2cccc(F)c2C)c2c[nH]nc2N1 (stereo not drawn) [Example 45, Ethyl 4-(3-fluoro-2-methylphenyl)-4,7-dihydro-6-propyl-2H-pyrazolo[3,4-b]pyridine-5-carboxylate] | 159 to 162 °C |
| CCCC1=C([N+](=O)[O-])C(c2ccccc2Br)c2c[nH]nc2N1 (stereo not drawn) [Example 118, 4-(2-Bromophenyl)-4,7-dihydro-5-nitro-6-propyl-2H-pyrazolo[3,4-b]pyridine] | 226 °C |
| CCCC1=C(C#N)C(c2ccccc2Cl)c2c(n[nH]c2CC(OC)OC)N1 (stereo not drawn) [Example 330, 4-(2-Chlorophenyl)-5-cyano-4,7-dihydro-3-(2,2-dimethoxyethyl)-6-propyl-2H-pyrazolo[3,4-b]pyridine] | 180 °C |
| Cc1ccsc1C1=C(C#N)C(c2cccc3nonc23)c2c[nH]nc2N1 (stereo not drawn) [Example 292, 4-(2,1,3-Benzoxadiazol-4-yl)-5-cyano-4,7-dihydro-6-(3-methylthiophen-2-yl)-2H-pyrazolo[3,4-b]pyridine] | 202 °C |
| CCCC1=C(C(=O)OCC)C(c2[nH]cnc2C)c2c[nH]nc2N1 (stereo not drawn) [Example 236, Ethyl 4,7-dihydro-4-(4-methyl-1H-imidazol-5-yl)-6-propyl-2H-pyrazolo[3,4-b]pyridine-5-carboxylate] | 219 to 220 °C |
| CCCC1=C(C(=O)OCC)C(c2ccccc2OC(C)C)c2c[nH]nc2N1 (stereo not drawn) [Example 35, Ethyl 4,7-dihydro-4-(2-isopropyloxyphenyl)-6-propyl-2H-pyrazolo[3,4-b]pyridine-5-carboxylate] | 210 °C |

| SMILES | melting point |
| --- | --- |
| CCCC1=C(C#N)C(c2cccc(C(F)(F)F)c2Cl)c2c[nH]nc2N1 (stereo not drawn) [Example 201, 4-(2-Chloro-3-trifluoromethylphenyl)-5-cyano-4,7-dihydro-6-propyl-2H-pyrazolo[3,4-b]pyridine] | > 250 °C |
| CCCC1=C(C(=O)OCC)C(c2cc3ccccc3o2)c2c[nH]nc2N1.O=C(O)/C=C\C(=O)O (stereo not drawn) [Example 81, Ethyl 4-(benzo[b]furan-2-yl)-4,7-dihydro-6-propyl-2H-pyrazolo[3,4-b]pyridine-5-carboxylate maleate] | 123 to 125 °C |
| N#CC1=C(c2ccccc2)Nc2n[nH]cc2C1c1ccccc1Cl (stereo not drawn) [Example 142, 4-(2-Chlorophenyl)-5-cyano-4,7-dihydro-6-phenyl-2H-pyrazolo[3,4-b]pyridine] | 158 °C |
| CCCOC(=O)n1ncc2c1NC(CCC)=C(C(=O)OCC)C2c1ccccc1Cl (stereo not drawn) [Example 221, Ethyl 4-(2-chlorophenyl)-4,7-dihydro-1-propoxycarbonyl-6-propyl-1H-pyrazolo[3,4-b]pyridine-5-carboxylate] | 66 to 68 °C |
| COc1ccccc1C1C(C#N)=C(C(C)C)Nc2n[nH]cc21 (stereo not drawn) [Example 265, 5-Cyano-4,7-dihydro-6-isopropyl-4-(2-methoxyphenyl)-2H-pyrazolo[3,4-b]pyridine] | > 250 °C |
| N#CC1=C(c2ccc3ccccc3c2)Nc2n[nH]cc2C1c1cccc2nonc12 (stereo not drawn) [Example 172, 4-(2,1,3-Benzoxadiazol-4-yl)-5-cyano-4,7-dihydro-6-(naphthalen-2-yl)-2H-pyrazolo[3,4-b]pyridine] | 228 °C |
| CC(C)C1=C(C#N)C(c2cccc3nonc23)c2c[nH]nc2N1 (stereo not drawn) [Example 264, 4-(2,1,3-Benzoxadiazol-4-yl)-5-cyano-4,7-dihydro-6-isopropyl-2H-pyrazolo[3,4-b]pyridine] | 222 to 223 °C (dec.) |
| N#CC1=C(c2cc3ccccc3s2)Nc2n[nH]cc2C1c1cccc2nonc12 (stereo not drawn) [Example 305, 4-(2,1,3-Benzoxadiazol-4-yl)-6-(benzothiophen-2-yl)-5-cyano-4,7-dihydro-2H-pyrazolo[3,4-b]pyridine] | 220 °C |
| CCCN1CCC(C2=C(C#N)C(c3cccc4nonc34)c3c[nH]nc3N2)CC1 (stereo not drawn) [Example 1034, 4-(2,1,3-Benzoxadiazol-4-yl)-5-cyano-4,7-dihydro-6-(1-propylpiperidin-4-yl)-2H-pyrazolo[3,4-b]pyridine] | 246 °C |
| N#CC1=C(C2=CCNCC2)Nc2n[nH]cc2C1c1cccc(C#N)c1Br (stereo not drawn) [Example 1047, 4-(2-Bromo-3-cyanophenyl)-5-cyano-4,7-dihydro-6-(1,2,3,6-tetrahydropyridin-4-yl)-2H-pyrazolo[3,4-b]pyridine] | 226 °C |
| N#CC1=C(C2CCCCC2=O)Nc2n[nH]cc2C1c1cccc(C#N)c1Br (stereo not drawn) [Example 1062, 4-(2-Bromo-3-cyanophenyl)-5-cyano-4,7-dihydro-6-(2-oxocyclohexan-1-yl)-2H-pyrazolo[3,4-b]pyridine] | 273 °C |
| CCCC1=C(C(=O)OCC)C(c2cccc3c2OCC=C3)c2c[nH]nc2N1 (stereo not drawn) [Example 72, Ethyl 4-(2H-1-benzopyran-8-yl)-4,7-dihydro-6-propyl-2H-pyrazolo[3,4-b]pyridine-5-carboxylate] | 194 °C |
| COc1cccc(C2=C(C#N)C(c3ccccc3[N+](=O)[O-])c3c[nH]nc3N2)c1 (stereo not drawn) [Example 156, 5-Cyano-4,7-dihydro-6-(3-methoxyphenyl)-4-(2-nitrophenyl)-2H-pyrazolo[3,4-b]pyridine] | 220 °C |
| COCn1cc(C2=C(C#N)C(c3cccc4nonc34)c3c[nH]nc3N2)c2ccccc21 (stereo not drawn) [Example 293, 4-(2,1,3-Benzoxadiazol-4-yl)-5-cyano-4,7-dihydro-6-(1-methoxymethylindol-3-yl)-2H-pyrazolo[3,4-b]pyridine] | 200 °C |
| CCCC1=C([N+](=O)[O-])C(c2cccc(Cl)c2Cl)c2c[nH]nc2N1 (stereo not drawn) [Example 122, 4-(2,3-Dichlorophenyl)-4,7-dihydro-5-nitro-6-propyl-2H-pyrazolo[3,4-b]pyridine] | 239 °C |
| COc1ccc(C2=C(C#N)C(c3ccccc3[N+](=O)[O-])c3c[nH]nc3N2)cc1 (stereo not drawn) [Example 157, 5-Cyano-4,7-dihydro-6-(4-methoxyphenyl)-4-(2-nitrophenyl)-2H-pyrazolo[3,4-b]pyridine] | 215 °C |
| CCCC1=C(C(=O)OCC)C(c2ccccc2Cl)c2cnn(C(=O)C=Cc3ccccc3)c2N1 (stereo not drawn) [Example 228, Ethyl 4-(2-chlorophenyl)-1-cinnamoyl-4,7-dihydro-6-propyl-1H-pyrazolo[3,4-b]pyridine-5-carboxylate] | 131 to 134 °C |
